Reference: patent US9738634B2, “Heterocyclic amide compound and herbicide” (SYNGENTA PARTICIPATIONS AG, priority 2013, dated 2017)

Assays:
Type in all cases: in vivo
Conditions in all cases: treatment dosage 320 g/ha
[1] = test system: black-grass; assay: Test Example 4: weedkilling efficacy by foliar treatment; H: black-grass
Procedure, shortened: (§1)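 Seeds are spot-sown into sterilized diluvial soil and covered with about 1.5 cm of soil. After 14 days' greenhouse growth at 25 to 30° C, plants are sprayed on stems and leaves with diluted emulsion at the stated g/ha rate, then scored at 3 weeks.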

[2] = test system: common wind-grass; assay: Test Example 4: weedkilling efficacy by foliar treatment; J: common wind-grass
Procedure, shortened: as §1

[3] = test system: barnyard grass; assay: Test Example 2: weedkilling efficacy, growth period weed treatment in the submerged state; A: barnyard grass
Procedure, shortened: (§2)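 Barnyard grass, bulrush and oval-leafed pondweed sown in alluvial soil under 4 cm flooding, greenhouse 25 to 30° C. At 1-2 leaf stage, water-diluted emulsion applied to the water surface at stated g/ha dosages; effects scored 3 weeks later.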

[4] = test system: wild oat; assay: Test Example 4: weedkilling efficacy by foliar treatment; G: wild oat
Procedure, shortened: as §1

[5] = test system: soybean; assay: Test Example 3: soil treatment, effect on crop; d: soybean
Procedure, shortened: (§3)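 Crop and weed responses were judged three weeks after a uniform surface spray of the water-diluted emulsion at the given g/ha rate. Seeds sat beneath about 1.5 cm of sterilized diluvial soil, and boxes stood in a greenhouse at 25 to 30° C.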

[6] = test system: directly sown rice; assay: Test Example 3: soil treatment, effect on crop; b: directly sown rice
Procedure, shortened: as §3

[7] = test system: fig-leafed goosefoot; assay: Test Example 3: weedkilling efficacy through soil treatment; M: fig-leafed goosefoot
Procedure, shortened: as §3

[8] = test system: Italian ryegrass; assay: Test Example 3: weedkilling efficacy through soil treatment; I: Italian ryegrass
Procedure, shortened: as §3

[9] = test system: wheat; assay: Test Example 3: soil treatment, effect on crop; e: wheat
Procedure, shortened: as §3

[10] = test system: Italian ryegrass; assay: Test Example 4: weedkilling efficacy by foliar treatment; I: Italian ryegrass
Procedure, shortened: as §1

[11] = test system: black-grass; assay: Test Example 3: weedkilling efficacy through soil treatment; H: black-grass
Procedure, shortened: as §3

[12] = test system: birds-eye speedwell; assay: Test Example 4: weedkilling efficacy by foliar treatment; p: birds-eye speedwell
Procedure, shortened: as §1

[13] = test system: bulrush; assay: Test Example 1: weedkilling efficacy, preemergent weed treatment in the submerged state; B: bulrush
Procedure, shortened: (§4)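 Visual scores against set criteria were taken 3 weeks after treatment. Compounds, as diluted emulsions at specified g/ha, went onto the water surface of 4 cm-flooded alluvial soil pots on the day weeds were sown and 2.5-leaf rice was transplanted; greenhouse held 25–30 °C.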

[14] = test system: green foxtail; assay: Test Example 3: weedkilling efficacy through soil treatment; E: green foxtail
Procedure, shortened: as §3

[15] = test system: beet; assay: Test Example 4: foliar treatment, effect on crop; f: beet
Procedure, shortened: as §1

[16] = test system: transplanted rice; assay: Test Example 1: preemergent weed treatment in the submerged state, effect on crop; a: transplanted rice
Procedure, shortened: as §4

[17] = test system: barnyard grass; assay: Test Example 4: weedkilling efficacy by foliar treatment; F: barnyard grass
Procedure, shortened: as §1

[18] = test system: rapeseed; assay: Test Example 4: foliar treatment, effect on crop; g: rapeseed
Procedure, shortened: as §1

[19] = test system: oval-leafed pondweed; assay: Test Example 1: weedkilling efficacy, preemergent weed treatment in the submerged state; C: oval-leafed pondweed
Procedure, shortened: as §4

[20] = test system: barnyard grass; assay: Test Example 1: weedkilling efficacy, preemergent weed treatment in the submerged state; A: barnyard grass
Procedure, shortened: as §4

[21] = test system: Indian mallow; assay: Test Example 3: weedkilling efficacy through soil treatment; K: Indian mallow
Procedure, shortened: as §3

[22] = test system: corn; assay: Test Example 4: foliar treatment, effect on crop; c: corn
Procedure, shortened: as §1

[23] = test system: green foxtail; assay: Test Example 4: weedkilling efficacy by foliar treatment; E: green foxtail
Procedure, shortened: as §1

[24] = test system: crabgrass; assay: Test Example 3: weedkilling efficacy through soil treatment; D: crabgrass
Procedure, shortened: as §3

[25] = test system: wild oat; assay: Test Example 3: weedkilling efficacy through soil treatment; G: wild oat
Procedure, shortened: as §3

[26] = test system: wheat; assay: Test Example 4: foliar treatment, effect on crop; e: wheat
Procedure, shortened: as §1

[27] = test system: corn; assay: Test Example 3: soil treatment, effect on crop; c: corn
Procedure, shortened: as §3

[28] = test system: rapeseed; assay: Test Example 3: soil treatment, effect on crop; g: rapeseed
Procedure, shortened: as §3

[29] = test system: common wind-grass; assay: Test Example 3: weedkilling efficacy through soil treatment; J: common wind-grass
Procedure, shortened: as §3

[30] = test system: oval-leafed pondweed; assay: Test Example 2: weedkilling efficacy, growth period weed treatment in the submerged state; C: oval-leafed pondweed
Procedure, shortened: as §2

[31] = test system: barnyard grass; assay: Test Example 3: weedkilling efficacy through soil treatment; F: barnyard grass
Procedure, shortened: as §3

[32] = test system: chickweed; assay: Test Example 3: weedkilling efficacy through soil treatment; N: chickweed
Procedure, shortened: as §3

[33] = test system: crabgrass; assay: Test Example 4: weedkilling efficacy by foliar treatment; D: crabgrass
Procedure, shortened: as §1

[34] = test system: soybean; assay: Test Example 4: foliar treatment, effect on crop; d: soybean
Procedure, shortened: as §1

[35] = test system: fig-leafed goosefoot; assay: Test Example 4: weedkilling efficacy by foliar treatment; M: fig-leafed goosefoot
Procedure, shortened: as §1

[36] = test system: catchweed; assay: Test Example 4: weedkilling efficacy by foliar treatment; O: catchweed
Procedure, shortened: as §1

[37] = test system: redroot pigweed; assay: Test Example 3: weedkilling efficacy through soil treatment; L: redroot pigweed
Procedure, shortened: as §3

[38] = test system: beet; assay: Test Example 3: soil treatment, effect on crop; f: beet
Procedure, shortened: as §3

[39] = test system: catchweed; assay: Test Example 3: weedkilling efficacy through soil treatment; O: catchweed
Procedure, shortened: as §3

[40] = test system: Indian mallow; assay: Test Example 4: weedkilling efficacy by foliar treatment; K: Indian mallow
Procedure, shortened: as §1

[41] = test system: chickweed; assay: Test Example 4: weedkilling efficacy by foliar treatment; N: chickweed
Procedure, shortened: as §1

[42] = test system: directly sown rice; assay: Test Example 4: foliar treatment, effect on crop; b: directly sown rice
Procedure, shortened: as §1

[43] = test system: birds-eye speedwell; assay: Test Example 3: weedkilling efficacy through soil treatment; p: birds-eye speedwell
Procedure, shortened: as §3

[44] = test system: redroot pigweed; assay: Test Example 4: weedkilling efficacy by foliar treatment; L: redroot pigweed
Procedure, shortened: as §1

CC1=C(c2ccccc2)C(=O)N(C(C)(C)C(=O)Nc2ccc3ccccc3n2)CO1 [B-1-18]
H (black-grass) weedkilling efficacy grade [1]: 1 (weed kill ratio 5% or more, less than 20%)
J (common wind-grass) weedkilling efficacy grade [2]: 3 (weed kill ratio 40% or more, less than 70%)
A (barnyard grass) weedkilling efficacy grade [3]: 4 (weed kill ratio 70% or more, less than 90%)
G (wild oat) weedkilling efficacy grade [4]: 0 (weed kill ratio 5% or less (practically no effect))
d (soybean) effect on crop grade [5]: 0 (weed kill ratio 5% or less (practically no effect))
b (directly sown rice) effect on crop grade [6]: 0 (weed kill ratio 5% or less (practically no effect))
M (fig-leafed goosefoot) weedkilling efficacy grade [7]: 0 (weed kill ratio 5% or less (practically no effect))
I (Italian ryegrass) weedkilling efficacy grade [8]: 2 (weed kill ratio 20% or more, less than 40%)
e (wheat) effect on crop grade [9]: 0 (weed kill ratio 5% or less (practically no effect))
I (Italian ryegrass) weedkilling efficacy grade [10]: 1 (weed kill ratio 5% or more, less than 20%)
H (black-grass) weedkilling efficacy grade [11]: 2 (weed kill ratio 20% or more, less than 40%)
P (birds-eye speedwell) weedkilling efficacy grade [12]: 4 (weed kill ratio 70% or more, less than 90%)
B (bulrush) weedkilling efficacy grade [13]: 5 (weed kill ratio 90% or more, (practically complete withering))
E (green foxtail) weedkilling efficacy grade [14]: 4 (weed kill ratio 70% or more, less than 90%)
f (beet) effect on crop grade [15]: 0 (weed kill ratio 5% or less (practically no effect))
a (transplanted rice) effect on crop grade [16]: 0 (weed kill ratio 5% or less (practically no effect))
F (barnyard grass) weedkilling efficacy grade [17]: 2 (weed kill ratio 20% or more, less than 40%)
g (rapeseed) effect on crop grade [18]: 3 (weed kill ratio 40% or more, less than 70%)
C (oval-leafed pondweed) weedkilling efficacy grade [19]: 5 (weed kill ratio 90% or more, (practically complete withering))
A (barnyard grass) weedkilling efficacy grade [20]: 5 (weed kill ratio 90% or more, (practically complete withering))
K (Indian mallow) weedkilling efficacy grade [21]: 0 (weed kill ratio 5% or less (practically no effect))
c (corn) effect on crop grade [22]: 1 (weed kill ratio 5% or more, less than 20%)
E (green foxtail) weedkilling efficacy grade [23]: 3 (weed kill ratio 40% or more, less than 70%)
D (crabgrass) weedkilling efficacy grade [24]: 3 (weed kill ratio 40% or more, less than 70%)
G (wild oat) weedkilling efficacy grade [25]: 0 (weed kill ratio 5% or less (practically no effect))
e (wheat) effect on crop grade [26]: 0 (weed kill ratio 5% or less (practically no effect))
c (corn) effect on crop grade [27]: 0 (weed kill ratio 5% or less (practically no effect))
g (rapeseed) effect on crop grade [28]: 0 (weed kill ratio 5% or less (practically no effect))
J (common wind-grass) weedkilling efficacy grade [29]: 5 (weed kill ratio 90% or more, (practically complete withering))
C (oval-leafed pondweed) weedkilling efficacy grade [30]: 5 (weed kill ratio 90% or more, (practically complete withering))
F (barnyard grass) weedkilling efficacy grade [31]: 1 (weed kill ratio 5% or more, less than 20%)
N (chickweed) weedkilling efficacy grade [32]: 0 (weed kill ratio 5% or less (practically no effect))
D (crabgrass) weedkilling efficacy grade [33]: 2 (weed kill ratio 20% or more, less than 40%)
d (soybean) effect on crop grade [34]: 0 (weed kill ratio 5% or less (practically no effect))
M (fig-leafed goosefoot) weedkilling efficacy grade [35]: 3 (weed kill ratio 40% or more, less than 70%)
O (catchweed) weedkilling efficacy grade [36]: 4 (weed kill ratio 70% or more, less than 90%)
L (redroot pigweed) weedkilling efficacy grade [37]: 0 (weed kill ratio 5% or less (practically no effect))
f (beet) effect on crop grade [38]: 0 (weed kill ratio 5% or less (practically no effect))
O (catchweed) weedkilling efficacy grade [39]: 0 (weed kill ratio 5% or less (practically no effect))
K (Indian mallow) weedkilling efficacy grade [40]: 3 (weed kill ratio 40% or more, less than 70%)
N (chickweed) weedkilling efficacy grade [41]: 3 (weed kill ratio 40% or more, less than 70%)
b (directly sown rice) effect on crop grade [42]: 0 (weed kill ratio 5% or less (practically no effect))
P (birds-eye speedwell) weedkilling efficacy grade [43]: 0 (weed kill ratio 5% or less (practically no effect))
L (redroot pigweed) weedkilling efficacy grade [44]: 2 (weed kill ratio 20% or more, less than 40%)
